# According to ChEMBL document CHEMBL1201862, “PubChem BioAssay data set” (2004):
# The source made the active and inactive calls.
# Legend:
# Paired box protein Pax-8 = Paired box protein Pax-8 (Homo sapiens, UniProt Q06710); experiment: inhibitors of PAX8-driven TPO luciferase reporter, dose response, RMG-I cells, cherry-pick (AID 687027); format: functional, cell-based;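 also: luciferase reporter driven by Pax8 target thyroperoxidase promoter measured by SteadyGlo luminescence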
# [1] = cytotoxicity in OVCAR8 ovarian cancer cells, dose response, PAX8 project, cell-based, plate reader, dry powder samples (AID 743197); format: functional; details: OVCAR-8
# [2] = NIH:OVCAR-3 ovarian cancer cell cytotoxicity, dose response, PAX8 inhibitor project, plate reader, dry powder samples (AID 743044); format: functional, cell-based
# [3] = target: Glucose-6-phosphate 1-dehydrogenase (Homo sapiens, UniProt P11413); experiment: human G6PD enzyme inhibitors, dose response, selectivity assay for P. falciparum G6PD inhibitor project, biochemical, fluorescence (AID 504792); format: functional
# Glucose-6-phosphate 1-dehydrogenase, sequence (P11413 whole entry): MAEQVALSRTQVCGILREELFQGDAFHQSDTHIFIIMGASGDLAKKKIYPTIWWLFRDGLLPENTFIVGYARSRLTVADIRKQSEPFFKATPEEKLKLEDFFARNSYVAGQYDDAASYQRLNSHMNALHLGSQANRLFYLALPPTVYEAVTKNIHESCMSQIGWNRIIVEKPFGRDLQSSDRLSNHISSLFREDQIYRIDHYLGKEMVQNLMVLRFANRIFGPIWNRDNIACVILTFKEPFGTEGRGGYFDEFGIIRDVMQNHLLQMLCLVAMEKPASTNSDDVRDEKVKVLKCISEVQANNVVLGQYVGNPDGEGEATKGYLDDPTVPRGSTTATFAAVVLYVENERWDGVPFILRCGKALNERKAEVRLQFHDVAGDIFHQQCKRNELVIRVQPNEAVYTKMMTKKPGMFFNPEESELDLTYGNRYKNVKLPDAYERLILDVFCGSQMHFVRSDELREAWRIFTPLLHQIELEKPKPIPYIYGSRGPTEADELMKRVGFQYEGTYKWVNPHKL
# [4] = target: SWI/SNF-related matrix-associated actin-dependent regulator of chromatin subfamily A member 2 (Homo sapiens, UniProt P51531); experiment: Luminescence-based cell-based high throughput dose response assay to identify activators of the function of SWI/SNF related, matrix associated, actin dependent regulator of chromatin, subfamily a, member 2 (SMARCA2, BRM).; format: functional
# SWI/SNF-related matrix-associated actin-dependent regulator of chromatin subfamily A member 2, sequence (P51531 whole entry): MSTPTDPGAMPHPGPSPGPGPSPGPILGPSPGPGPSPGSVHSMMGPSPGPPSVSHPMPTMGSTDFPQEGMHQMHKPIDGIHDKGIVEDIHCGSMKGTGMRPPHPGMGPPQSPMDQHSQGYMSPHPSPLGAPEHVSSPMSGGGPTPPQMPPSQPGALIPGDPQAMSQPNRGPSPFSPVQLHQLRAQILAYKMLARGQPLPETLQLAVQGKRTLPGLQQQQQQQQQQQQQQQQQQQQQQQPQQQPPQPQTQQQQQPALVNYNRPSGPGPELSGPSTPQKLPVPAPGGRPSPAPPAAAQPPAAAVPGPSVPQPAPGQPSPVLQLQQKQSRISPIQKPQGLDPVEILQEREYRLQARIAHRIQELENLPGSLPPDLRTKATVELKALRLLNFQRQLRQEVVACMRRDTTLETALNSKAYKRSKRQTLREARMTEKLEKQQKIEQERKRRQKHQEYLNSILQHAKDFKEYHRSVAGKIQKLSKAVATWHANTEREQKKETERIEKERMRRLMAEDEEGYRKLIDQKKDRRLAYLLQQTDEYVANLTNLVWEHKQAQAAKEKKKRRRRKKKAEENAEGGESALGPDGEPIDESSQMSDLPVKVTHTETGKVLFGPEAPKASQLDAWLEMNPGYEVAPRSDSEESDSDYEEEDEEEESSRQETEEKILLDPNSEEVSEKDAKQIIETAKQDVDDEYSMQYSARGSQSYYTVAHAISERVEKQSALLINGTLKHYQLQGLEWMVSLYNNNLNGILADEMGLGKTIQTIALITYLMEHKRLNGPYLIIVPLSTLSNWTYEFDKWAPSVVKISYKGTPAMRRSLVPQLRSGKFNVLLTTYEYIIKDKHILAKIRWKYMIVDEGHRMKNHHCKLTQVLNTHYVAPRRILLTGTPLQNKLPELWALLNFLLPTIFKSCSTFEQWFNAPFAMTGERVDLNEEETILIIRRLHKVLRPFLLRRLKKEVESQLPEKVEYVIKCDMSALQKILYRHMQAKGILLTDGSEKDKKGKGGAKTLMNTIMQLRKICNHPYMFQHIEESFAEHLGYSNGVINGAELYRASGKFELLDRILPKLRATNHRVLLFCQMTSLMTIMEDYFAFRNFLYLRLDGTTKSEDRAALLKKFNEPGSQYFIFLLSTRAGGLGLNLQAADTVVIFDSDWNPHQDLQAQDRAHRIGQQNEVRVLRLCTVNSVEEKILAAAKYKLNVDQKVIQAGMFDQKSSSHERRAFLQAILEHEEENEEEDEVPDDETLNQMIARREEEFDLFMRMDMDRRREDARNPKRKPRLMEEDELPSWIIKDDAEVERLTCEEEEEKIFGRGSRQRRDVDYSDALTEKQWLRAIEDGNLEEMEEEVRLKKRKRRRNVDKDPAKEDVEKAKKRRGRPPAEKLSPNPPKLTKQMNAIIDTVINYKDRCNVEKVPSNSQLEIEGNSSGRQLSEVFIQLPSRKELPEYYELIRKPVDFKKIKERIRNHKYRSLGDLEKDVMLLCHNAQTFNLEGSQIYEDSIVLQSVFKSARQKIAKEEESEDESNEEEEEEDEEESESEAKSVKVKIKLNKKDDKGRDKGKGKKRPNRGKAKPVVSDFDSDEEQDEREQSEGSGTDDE
# [5] = Counterscreen for activators of the function of SWI/SNF related, matrix associated, actin dependent regulator of chromatin, subfamily a, member 2 (SMARCA2, BRM): Luminescence-based cell-based high throughput dose response assay to identify non-selective compounds using the VP16 reporter assay.; format: functional
# Protein RecA = target: T1, Protein RecA (Mycobacterium tuberculosis, UniProt P9WHJ3); experiment: Fluorescence Cell-Free Homogeneous Dose Retest to Identify Inhibitors of RecA-Intein Splicing Activity. [Related pubchem assays (depositor defined):AID2097, AID2223, AID489010, AID492950]; format: functional
# T1 sequence (P9WHJ3 whole entry): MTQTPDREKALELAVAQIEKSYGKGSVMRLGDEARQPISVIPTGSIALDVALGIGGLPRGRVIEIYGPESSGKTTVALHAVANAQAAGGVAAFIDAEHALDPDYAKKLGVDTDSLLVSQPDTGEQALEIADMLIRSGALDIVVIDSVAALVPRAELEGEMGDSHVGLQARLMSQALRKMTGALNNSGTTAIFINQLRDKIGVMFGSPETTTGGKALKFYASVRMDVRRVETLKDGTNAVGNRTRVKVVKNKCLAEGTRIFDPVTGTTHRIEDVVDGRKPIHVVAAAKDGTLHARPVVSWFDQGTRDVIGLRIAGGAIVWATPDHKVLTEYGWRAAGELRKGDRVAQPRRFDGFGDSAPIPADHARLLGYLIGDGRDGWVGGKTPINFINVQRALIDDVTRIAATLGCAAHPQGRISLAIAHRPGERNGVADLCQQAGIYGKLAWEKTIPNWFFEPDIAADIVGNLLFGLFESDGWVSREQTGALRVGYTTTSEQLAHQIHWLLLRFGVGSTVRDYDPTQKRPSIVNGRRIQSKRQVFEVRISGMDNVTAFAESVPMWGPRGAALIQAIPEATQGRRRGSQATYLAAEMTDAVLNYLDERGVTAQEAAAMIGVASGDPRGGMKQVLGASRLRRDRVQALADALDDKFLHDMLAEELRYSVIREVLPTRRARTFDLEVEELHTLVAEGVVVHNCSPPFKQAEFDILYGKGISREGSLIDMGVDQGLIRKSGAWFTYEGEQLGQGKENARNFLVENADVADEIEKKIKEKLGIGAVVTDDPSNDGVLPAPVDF
# [6] = target: T2, Replicative DNA helicase DnaB (Mycobacterium tuberculosis, UniProt P9WMR3); experiment: DnaB intein splicing inhibitors, dose response, biochemical, cell-free fluorescence (AID 449749); format: functional
# T2 sequence (P9WMR3 whole entry): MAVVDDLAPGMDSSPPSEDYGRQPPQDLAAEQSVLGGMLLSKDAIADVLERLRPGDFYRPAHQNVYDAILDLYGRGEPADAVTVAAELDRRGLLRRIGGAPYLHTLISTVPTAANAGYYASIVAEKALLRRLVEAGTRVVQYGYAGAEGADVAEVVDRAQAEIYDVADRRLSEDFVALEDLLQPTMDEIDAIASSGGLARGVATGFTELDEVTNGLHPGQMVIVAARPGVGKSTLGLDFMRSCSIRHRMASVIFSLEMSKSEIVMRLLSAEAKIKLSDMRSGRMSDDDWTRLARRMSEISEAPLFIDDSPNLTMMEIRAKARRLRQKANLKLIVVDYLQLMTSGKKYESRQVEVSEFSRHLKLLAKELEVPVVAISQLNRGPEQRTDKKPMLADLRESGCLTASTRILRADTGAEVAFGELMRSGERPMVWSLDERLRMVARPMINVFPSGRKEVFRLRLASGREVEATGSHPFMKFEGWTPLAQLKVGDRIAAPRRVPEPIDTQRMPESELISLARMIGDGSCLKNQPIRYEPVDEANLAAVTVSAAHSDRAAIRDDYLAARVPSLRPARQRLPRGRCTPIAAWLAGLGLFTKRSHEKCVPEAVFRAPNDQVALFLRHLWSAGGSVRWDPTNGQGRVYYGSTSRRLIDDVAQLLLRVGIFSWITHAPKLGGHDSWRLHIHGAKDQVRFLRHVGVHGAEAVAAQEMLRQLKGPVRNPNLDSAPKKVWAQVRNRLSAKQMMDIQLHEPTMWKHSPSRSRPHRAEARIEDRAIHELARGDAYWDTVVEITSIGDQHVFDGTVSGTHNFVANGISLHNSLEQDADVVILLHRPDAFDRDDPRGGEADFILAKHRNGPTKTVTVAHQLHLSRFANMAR
# [7] = target: Photoreceptor-specific nuclear receptor (Homo sapiens, UniProt Q9Y5X4); experiment: NR2E3 inverse agonists, dose response, biochemical, TR-FRET (AID 463256); format: functional
# Photoreceptor-specific nuclear receptor, sequence (Q9Y5X4 whole entry): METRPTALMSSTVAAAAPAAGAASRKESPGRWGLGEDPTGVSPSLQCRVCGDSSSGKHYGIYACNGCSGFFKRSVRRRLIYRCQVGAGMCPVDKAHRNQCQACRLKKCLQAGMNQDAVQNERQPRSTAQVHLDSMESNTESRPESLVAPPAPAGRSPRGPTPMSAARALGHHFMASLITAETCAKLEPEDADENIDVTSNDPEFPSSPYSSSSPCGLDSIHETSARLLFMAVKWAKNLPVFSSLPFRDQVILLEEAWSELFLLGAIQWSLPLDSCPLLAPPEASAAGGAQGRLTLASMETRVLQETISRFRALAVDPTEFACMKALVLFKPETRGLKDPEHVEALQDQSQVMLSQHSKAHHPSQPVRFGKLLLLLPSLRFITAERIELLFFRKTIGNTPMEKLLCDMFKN
# [8] = target: Peroxisome proliferator-activated receptor gamma/Nuclear receptor corepressor 2 (Homo sapiens, UniProt P37231+Q9Y618); experiment: Counterscreen for NR2E3 inverse agonists: TR-FRET-based biochemical high throughput dose response assay to identify inverse agonists of the interaction between peroxisome proliferator-activated receptor gamma (PPARg) and nuclear receptor co-repressor 2 (NCOR2).; format: functional
# [9] = P. falciparum Dd2 growth inhibitors, dose response, SYBR Green, cherry-picked samples (AID 1159567); format: functional, cell-based
# [10] = P. falciparum Dd2 growth inhibitors, dose response, SYBR Green, dry powder samples (AID 1159566); format: functional, cell-based;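 also: potency for growth inhibition with lower SYBR green DNA signal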
# [11] = P. falciparum 3D7-ScDHODH growth inhibitors, dose response, SYBR Green, dry powder samples (AID 1159570); format: functional, cell-based;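 also: parasite growth measured after 72 hours of compound exposure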
# [12] = P. falciparum ATP4 D1247Y mutant growth inhibitors, dose response, NITD609-resistant line, SYBR Green, dry powder (AID 1159571); format: functional, cell-based;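 also: parasites synchronized at ring stage by sorbitol before testing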
# [13] = HepG2 cell cytotoxicity, dose response, cytotoxicity control, plate reader, dry powder samples (AID 1159569); format: functional, cell-based;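 also: inhibitor potency with signal falling toward the positive control level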
# [14] = target: T3, Corticotropin-releasing factor receptor 2/Corticotropin-releasing factor-binding protein (Homo sapiens, UniProt P24387+Q13324); experiment: activators of CRF receptor 2 with binding protein – uHTS hits, confirmation (AID 602473); format: functional; details: read-out: EC50_Mean
# T3 sequence (Q13324 whole entry): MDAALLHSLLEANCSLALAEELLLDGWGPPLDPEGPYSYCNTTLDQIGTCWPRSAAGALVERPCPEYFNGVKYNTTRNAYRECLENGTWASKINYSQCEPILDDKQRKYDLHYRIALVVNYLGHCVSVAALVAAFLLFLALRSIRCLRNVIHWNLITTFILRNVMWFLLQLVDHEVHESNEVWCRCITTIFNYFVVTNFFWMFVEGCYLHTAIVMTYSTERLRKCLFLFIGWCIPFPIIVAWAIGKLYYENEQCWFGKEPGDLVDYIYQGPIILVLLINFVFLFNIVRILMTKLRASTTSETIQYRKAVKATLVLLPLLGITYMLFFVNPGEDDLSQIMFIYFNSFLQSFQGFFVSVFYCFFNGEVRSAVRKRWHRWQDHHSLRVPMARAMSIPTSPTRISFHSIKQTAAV
# T3 sequence (P24387 whole entry): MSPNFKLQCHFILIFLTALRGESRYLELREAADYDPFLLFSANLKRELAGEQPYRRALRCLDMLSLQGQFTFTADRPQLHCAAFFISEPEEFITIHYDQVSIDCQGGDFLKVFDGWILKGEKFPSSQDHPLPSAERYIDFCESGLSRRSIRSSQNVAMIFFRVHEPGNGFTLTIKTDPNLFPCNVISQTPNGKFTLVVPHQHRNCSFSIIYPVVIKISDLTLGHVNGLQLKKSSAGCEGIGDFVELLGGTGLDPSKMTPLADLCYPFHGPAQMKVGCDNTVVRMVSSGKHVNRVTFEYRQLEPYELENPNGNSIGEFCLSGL
# [15] = target: T3, Corticotropin-releasing factor receptor 2/Corticotropin-releasing factor-binding protein; experiment: Dose Response confirmation of uHTS hits for small molecule antagonists of the CRF-binding protein and CRF-R2 receptor complex.; format: functional; details: read-out: IC50_Mean
# [16] = target: 5-hydroxytryptamine receptor 2A (Mus musculus, UniProt P35363); format: functional, cell-based;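 also: CHO-K1 cells with tagged receptor and beta-arrestin; agonist potency measured as compound-induced activation of the receptor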
# 5-hydroxytryptamine receptor 2A, sequence (P35363 whole entry): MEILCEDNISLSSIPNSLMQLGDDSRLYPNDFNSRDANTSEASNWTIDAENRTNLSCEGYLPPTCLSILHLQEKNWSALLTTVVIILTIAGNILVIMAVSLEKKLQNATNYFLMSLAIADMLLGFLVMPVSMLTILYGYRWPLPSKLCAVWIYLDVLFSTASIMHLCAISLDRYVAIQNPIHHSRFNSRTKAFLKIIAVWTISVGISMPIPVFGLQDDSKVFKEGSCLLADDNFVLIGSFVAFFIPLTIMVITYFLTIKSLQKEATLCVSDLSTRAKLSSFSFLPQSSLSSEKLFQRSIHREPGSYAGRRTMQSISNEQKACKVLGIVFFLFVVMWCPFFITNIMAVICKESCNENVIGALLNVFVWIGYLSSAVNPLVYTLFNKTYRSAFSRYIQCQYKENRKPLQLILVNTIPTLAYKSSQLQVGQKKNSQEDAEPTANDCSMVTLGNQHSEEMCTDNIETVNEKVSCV
# Mu-type opioid receptor = Mu-type opioid receptor (Homo sapiens, UniProt P35372); format: functional, cell-based;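 also: U2OS cells with beta-arrestin recruitment to OPRM1 by beta-gal complementation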
# Mu-type opioid receptor, sequence (P35372 whole entry): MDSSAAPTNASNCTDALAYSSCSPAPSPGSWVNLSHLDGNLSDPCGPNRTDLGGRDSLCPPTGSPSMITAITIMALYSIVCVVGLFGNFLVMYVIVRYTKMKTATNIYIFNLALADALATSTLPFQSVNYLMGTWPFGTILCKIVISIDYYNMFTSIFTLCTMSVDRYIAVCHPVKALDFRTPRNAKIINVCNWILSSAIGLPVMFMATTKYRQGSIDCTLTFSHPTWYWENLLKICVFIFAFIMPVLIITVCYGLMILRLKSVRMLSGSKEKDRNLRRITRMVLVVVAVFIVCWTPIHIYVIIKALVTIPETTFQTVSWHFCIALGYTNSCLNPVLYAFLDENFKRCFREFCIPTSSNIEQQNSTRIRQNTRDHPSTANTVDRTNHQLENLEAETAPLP
# Paired box protein Pax-8, sequence (Q06710 whole entry): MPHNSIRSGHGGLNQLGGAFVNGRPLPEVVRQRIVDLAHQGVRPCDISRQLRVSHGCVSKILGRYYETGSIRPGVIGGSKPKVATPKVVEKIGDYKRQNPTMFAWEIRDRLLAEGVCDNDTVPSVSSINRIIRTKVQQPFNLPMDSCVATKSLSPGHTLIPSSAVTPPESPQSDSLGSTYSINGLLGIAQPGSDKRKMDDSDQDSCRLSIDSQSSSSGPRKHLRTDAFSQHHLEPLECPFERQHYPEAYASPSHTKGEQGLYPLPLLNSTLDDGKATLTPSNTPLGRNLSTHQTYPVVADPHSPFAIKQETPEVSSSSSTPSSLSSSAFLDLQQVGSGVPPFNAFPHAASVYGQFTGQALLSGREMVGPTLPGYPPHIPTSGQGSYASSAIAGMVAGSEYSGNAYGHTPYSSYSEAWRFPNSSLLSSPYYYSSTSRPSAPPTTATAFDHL
structure (smiles),measurement,setting,value
C[C@@H]1CCCCO[C@H](CN(C)Cc2ccc(C(F)(F)F)cc2)[C@H](C)CN([C@@H](C)CO)C(=O)c2cc(NS(=O)(=O)c3ccc(Cl)cc3)ccc2O1,AC50,Paired box protein Pax-8,5.9 µM (active)
same,AC50,[1],> 70 µM (inactive)
same,AC50,[2],16.4 µM (active)
Cc1ccc(S(=O)(=O)Oc2cccc(/C=N/Nc3ccc(C(=O)O)cc3)c2)cc1,IC50,[3],53.5 µM (inactive)
COc1ccc(-c2cc(C#N)nc(Cl)n2)cc1,EC50,[4],> 91.2 µM (inactive)
same,EC50,[5],> 91.2 µM (inactive)
same,EC50,Protein RecA,37.2 µM (active)
same,AC50,[6],79.8 µM (active)
Cc1ccsc1C(=O)OCC(=O)NCCC1=CCCCC1,EC50,[4],> 91.1 µM (inactive)
same,EC50,[5],> 91.1 µM (inactive)
Cc1ccc(S(=O)(=O)N(C)C[C@H]2OCCCC[C@H](C)Oc3ccc(NS(=O)(=O)c4ccc(Cl)cc4)cc3C(=O)N([C@@H](C)CO)C[C@@H]2C)cc1,AC50,Paired box protein Pax-8,6.7 µM (active)
same,AC50,[1],> 70 µM (inactive)
CCn1cnc2sc(C(=O)Nc3ccccc3OC)c(C)c2c1=O,IC50,[7],7.11 µM (active)
same,IC50,[8],4.9 µM (active)
COc1ccc(S(=O)(=O)N(C)C[C@H]2Oc3c(NC(=O)Nc4cccc5ccccc45)cccc3C(=O)N([C@@H](C)CO)C[C@H]2C)cc1,AC50,[9],0.489 µM (active)
same,AC50,[10],0.327 µM (active)
same,AC50,[11],0.3 µM (active)
same,AC50,[12],0.277 µM (active)
same,AC50,[13],> 100 µM (inactive)
Cc1ccc(CN(C(=O)c2ccccc2[N+](=O)[O-])C2CCS(=O)(=O)C2)o1 (configuration not stated),EC50,[14],> 53 µM (inactive)
same,IC50,[15],> 47.1 µM (inactive)
CC(=O)c1cccc(OCC(O)CN2CC=C(c3ccccc3)CC2)c1 (configuration not stated),EC50,[16],0.0752 µM (active)
same,EC50,Mu-type opioid receptor,92.5 µM (inactive)
CCn1c(SCc2nc3scc(-c4ccccc4)c3c(=O)[nH]2)nnc1-c1cccs1,IC50,[3],> 80 µM (inactive)
O=S(=O)(c1ccc(OCC(O)CN2CCN(c3ccccc3O)CC2)cc1)N1CCOCC1 (configuration not stated),EC50,[16],76.1 µM (inactive)
same,EC50,Mu-type opioid receptor,92.5 µM (inactive)
Nc1nc(CN2CCN(Cc3ccccc3)CC2)nc(Nc2ccc3c(c2)OCCO3)n1,EC50,[4],> 91.2 µM (inactive)
same,EC50,[5],> 91.2 µM (inactive)
COc1ccc2c3c([nH]c2c1)[C@@H](CO)N(Cc1cccc(F)c1)CC31CCN(Cc2ccccn2)CC1,AC50,[9],1.21 µM (active)
same,AC50,[10],1.52 µM (active)
same,AC50,[11],1.32 µM (active)
same,AC50,[12],1.1 µM (active)
same,AC50,[13],48.6 µM (active)
Cc1ccc(S(=O)(=O)N(C)C)cc1NC(=O)CSc1nc2cc(Cl)c[nH]c-2n1,IC50,[3],> 80 µM (inactive)
O=C(Nc1cccc(-n2cnnn2)c1)c1cc2ccccc2o1,IC50,[7],6.55 µM (active)
same,IC50,[8],5.91 µM (active)
Cc1ccccc1-c1ccc2c(c1)O[C@H](CN(C)C(=O)Nc1ccc(C(F)(F)F)cc1)[C@@H](C)CN([C@H](C)CO)S2(=O)=O,AC50,Paired box protein Pax-8,8 µM (active)
same,AC50,[1],> 70 µM (inactive)
same,AC50,[2],41.1 µM (active)
O=C(CCN1CCN(c2ccccc2)CC1)N/N=C/c1ccccc1OC(F)F,EC50,[16],25.4 µM (inactive)
same,EC50,Mu-type opioid receptor,92.5 µM (inactive)
O=S(=O)(c1ccc(OCC(O)CN2CCN(c3ccccc3Cl)CC2)cc1)N1CCOCC1 (configuration not stated),EC50,[16],25.4 µM (inactive)
same,EC50,Mu-type opioid receptor,92.5 µM (inactive)
C[C@H](NC(=O)Nc1ccc2c(c1)OCCO2)C(=O)O,EC50,[14],> 53 µM (inactive)
same,IC50,[15],> 47.1 µM (inactive)
CC1CCC2=NN(C(=O)c3ccco3)C(O)(C(F)(F)F)C2C1 (configuration not stated),EC50,[14],> 53 µM (inactive)
same,IC50,[15],> 47.1 µM (inactive)
COc1cccc(NC(=O)N2[C@@H](CO)[C@@H](c3ccccc3)[C@@H]2CNCC(C)C)c1,AC50,[9],1.78 µM (active)
same,AC50,[10],1.05 µM (active)
same,AC50,[11],1.08 µM (active)
same,AC50,[12],1.4 µM (active)
same,AC50,[13],67.9 µM (active)
